Patent US5510366A, “Indole derivatives, salts thereof, and congestive heart failure therapeutic agents comprising the same” (Kowa Co., Ltd., priority 1993, dated 1996)
Structures can show the parent of a compound that is named as a salt.

How the values were obtained:
hind-leg blood flow = assay: Action on hind-leg blood flow in anesthetized dogs; assay type: in vivo, Hybrid adult dogs; conditions: 100 μg into femoral artery; for change in vivo at 0.1 mg: Canis lupus familiaris, read-out: Rate of blood flow increase (%)
Description: <Action on hind-leg blood flow in anesthetized dogs>
Hybrid adult dogs were anesthetized by intravenous injection of 30 mg/kg of sodium pentobarbital. After administration of heparin, an extracorporeal circulation circuit was formed in femoral artery. The blood flows at hind-legs were measured by fixing an electromagnetic blood flow meter probe in the circuit. The test compound at a dose of 100 μg was administered into femoral artery via a tube provided in the circuit. The results in Table 3 show the rate of blood flow increase.

ventricular fibrillation = assay: Antiarrhythmic action against chloroform in mice (suppression of ventricular fibrillation); assay type: in vivo; conditions: Mus musculus, 20 min, 20 minutes before chloroform, read-out: Rate of suppression (%) of ventricular fibrillation
Description: <Antiarrhythmic action against chloroform in mice>
A test compound was administered to mice at a dose of 100 mg/kg. After 20 minutes, mice were placed in a pot filled with chloroform. Mice were taken out immediately after respiratory arrest. Electrocardiogram was recorded at the 11th induction, and ventricular tachycardia, ventricular fibrillation, and the time until cardiac arrest were measured.

atrium specimen = assay: Inotropic action in atrium specimen and anti-chronotropic action in guinea pigs; conditions: Cavia porcellus; guinea pig atrium; 10^-5 M; "light atrium", left atrium stimulated at 1 Hz; read-out: Rate contraction increase (%)
Description: <Inoropic action in atrium specimen and anti-chronotropic action in guinea pigs>
After bruising on the head, guinea pigs were dehematized by sectioning carotid arteries and their heart was enucleated. Right and left atriums were taken out. These atriums were suspended in Krebs-Henseleit solution wherein 95% O2-5 % CO2 was bubbled. The tension was measured by a strain gauge and recorded via an amplifier. Pulsation at the right atrium was counted via a tachometer to determine the heart rate. Electric stimulation, twice a magnitude of the ceiling value at 1 Hz, 5 msec, was given to the left atrium. The test compound was administered at an interval of 5 minutes.
The results, shown in Table 2, indicate the rate of contraction increase of the light atrium at a dose of 10^-5 M of the test compound.

SMILES	change in vivo at 0.1 mg (hind-leg blood flow)	inhibition in vivo at 100 mg/kg (ventricular fibrillation)	activation at 10 µM (atrium specimen)	further results
Cc1cc2c(c3c1NC(=O)C3(C)C)OC(CN)C2.Cl (centres unmarked) [Example 1 (a), 2-Aminomethyl-2,3,7,8-tetrahydro-5,8,8-trimethyl-6H-furo 2,3-e!indol-7-onehydrochloride]				Rate of blood flow increase (%) (hind-leg blood flow): 192%
Cc1cc2c(c3c1NC(=O)C3(C)C)OC(Cn1ccnc1)C2 (centres unmarked) [Example 16, 2-(1-Imidazolyl)methyl-2,3,7,8-tetrahydro-5,8,8-trimethyl-6H-furo 2,3-e!indol-7-one.cndot.hydrochloride]	90%	90%		
COc1ccc(C(=O)N2CCN(CC3Cc4cc(C)c5c(c4O3)C(C)(C)C(=O)N5)CC2)cc1OC (centres unmarked) [Example 23, 2-4-(3,4-dimethoxybenzoyl)-1-piperadinyl!methyl-2,3,7,8-tetrahydro-5,8,8-trimethyl-6H-furo 2,3-e!indol-7-one.cndot.hydrochloride]	81%			
Cc1cc2c(c3c1NC(=O)C3(C)C)OCC2CN (centres unmarked) [Example 13 (3), 3-Aminomethyl-2,3,7,8-tetrahydro-5,8,8-trimethyl-6H-furo 2,3-e!indol-7-one.cndot.hydrochloride]	55%			
CCCCCCc1cc2c(c3c1NC(=O)C3(C)C)OC(CN)C2 (centres unmarked) [Example 25 (9), 2-Aminomethyl-8,8-dimethyl-5-n-hexyl-2,3,7,8-tetrahydro-6H-furo 2,3-e!indol-7-one.cndot.hydrochloride]		100%	46%	
Cc1cc2c(c3c1NC(=O)C3(C)C)OC(CN1CCNCC1)C2 (centres unmarked) [Example 22, 2-(1-Piperadinyl)methyl-2,3,7,8-tetrahydro-5,8,8-trimethyl-6H-furo 2,3-e!in dol-7-one.cndot.dihydrochloride]	121%			
CC[C@H]1c2cc(C)c3c(c2O[C@H]1CN)C(C)(C)C(=O)N3 (relative stereo) [Example 7 (6)(b), (2R* ,3S*)-2-aminomethyl-3-ethyl-2,3,7,8-tetrahydro-5,8,8-trimethyl-6H-furo 2,3-e!indol-7-one.cndot.hydrochloride]			27%	
Cc1cc2c(c3c1NC(=O)C3(C)C)OC(CN1CCCCC1)C2 (centres unmarked) [Example 19, 2-(1-Piperidinyl)methyl-2,3,7,8-tetrahydro-5,8,8-trimethyl-6H-furo 2,3-e!in dol-7-one.cndot.hydrochloride]			28%	
Cc1cc2c(c3c1NC(=O)C3(C)C)OC(C)(CN)C2 (centres unmarked) [Example 2 (8), 2-Aminomethyl-2,3,7,8-tetrahydro-2,5,8,8-tetramethyl-6H-furo 2,3-e!indol-7-one.cndot.hydrochloride]			23%	
Cc1cc2c(c3c1NC(=O)C3(C)C)OC(CN(C)C)C2 (centres unmarked) [Example 17, 2-Dimethylaminomethyl-2,3,7,8-tetrahydro-5,8,8-trimethyl-6H-furo 2,3-e!indol-7-one.cndot.hydrochloride]		100%		
Cc1cc2c(c3c1NC(=O)C3(C)C)OC(CN1CCN(Cc3ccccc3)CC1)C2 (centres unmarked) [Example 20, 2-(4-Benzyl-1-piperadinyl)methyl-2,3,7,8-tetrahydro-5,8,8-trimethyl-6H-furo 2,3-e!indol-7-one.cndot.dihydrochloride]	96%			
Cc1c(C)c2c(c3c1CC(CN)O3)C(C)(C)C(=O)N2 (centres unmarked) [Example 30 (8)HCl, 2-Aminomethyl-2,3,7,8-tetrahydro-4,5,8,8-tetramethyl-6H-furo 2,3-e!indol-7-one.cndot.hydrochloride]			28%	
Cc1cc2c(c3c1NC(=S)C3(C)C)O[C@@H](CN)[C@@H]2C (relative stereo) [Example 35, (2R*,3R*)-2-aminomethyl-2,3,7,8-tetrahydro-3,5,8,8-tetramethyl-6H-furo 2,3-e!indol-7-thione.cndot.hydrochloride]		100%		
CCOC(=O)c1cc2c3c(ccc2[nH]1)CC(CN)O3 (centres unmarked) [Example 47 (5), 2-Aminomethyl-2,3-dihydro-7-ethoxycarbonyl-6H-furo 2,3-e!indole.cndot.hydrochloride]		90%		
CCCCc1cc2c(c3c1NC(=O)C3(C)C)OC(CN)C2 (centres unmarked) [Example 28 (9)HCl, 2Aminomethyl-5-n-butyl-8,8-dimethyl-2,3,7,8-tetrahydro-6H-furo 2,3-e!indol-7-one.cndot.hydrochloride]		90%		
CCc1cc2c(c3c1NC(=O)C3(C)C)OC(CN)C2 (centres unmarked) [Example 26 (6), 2-Aminomethyl-8,8-dimethyl-5-ethyl-2,3,7,8-tetrahydro-6H-furo 2,3-e!indol-7-one.cndot.hydrochloride]	216%			
Cc1cc2c(c3c1NC(=O)C3(C)C)OC(CNCc1ccccc1)C2 (centres unmarked) [Example 15, 2-Benzylaminomethyl-2,3,7,8-tetrahydro-5,8,8-trimethyl-6H-furo 2,3-e!indol-7-one.cndot.hydrochloride]		100%		
Cc1cc2c(c3c1NC(=O)C3(C)C)O[C@@](C)(CN)[C@@H]2C (relative stereo) [Example 55 (B isomer), (2R*,3R*)-2-aminomethyl-2,3,5,8,8-pentamethyl-2,3,7,8-tetrahydro-6H-furo 2 ,3-e!indol-7one.cndot.hydrochloride]	55%		24%	inhibition in vivo at 30 mg/kg (ventricular fibrillation; Dose: 30 mg/kg): 100%
CNCC1Cc2cc(C)c3c(c2O1)C(C)(C)C(=O)N3 (centres unmarked) [Example 14, 2-Methylaminomethyl-2,3,7,8-tetrahydro-5,8,8-trimethyl-6H-furo 2,3-e!indol-7-one.cndot.hydrochloride]			20%	
CCCCNCC1Cc2cc(C)c3c(c2O1)C(C)(C)C(=O)N3 (centres unmarked) [Example 18, 2-n-Butylaminomethyl-2,3,7,8-tetrahydro-5,8,8-trimethyl-6H-furo 2,3-e!indol-7-one.cndot.hydrochloride]	145%			
Cc1cc2c(c3c1NC(=O)C3(C)C)OC(CN)C2 (centres unmarked) [Example 1 (9), 2-Aminomethyl-2,3,7,8-tetrahydro-5,8,8-trimethyl-6H-furo 2,3-e!indol-7-onehydrochloride]			13%	
Cc1cc2c(c3c1NC(=O)C3(C)C)O[C@@H](CN)[C@@H]2C (relative stereo) [Example 3 (5) (Former component), (2R*,3R*)-2-aminomethyl-2,3,7,8-tetrahydro-3,5,8,8-tetramethyl-6H-furo 2,3-e!indol-7-one.cndot.hydrochloride]	128%			
